Where two headings read alike, the source gives them in different places. Starred links: 1 amine or outer side, 2 acyl side, 3 side chain; linkers in the order of their positions; H or OH if unused. Positions of bridges follow the written chain, without caps; N, C: chain ends. Non-standard residues stand in square brackets, D forms with d. Residues, ends and D or L forms follow the SMILES beside them. Chains are numbered I, II in the order given. Actinocin(9to1) = Cc1c2oc3c(C)ccc(C(=O)[*:1])c3nc-2c(C(=O)[*:2])c(N)c1=O; NMeV = CN[C@H](C(=O)O)C(C)C; Sar = CNCC(=O)O
Columns and labels:
CTLL-2-bcl2 cells [1] = settings: after metabolic activation
CTLL-2-bcl2 cells [2] = format: cell-based, mouse; settings: after metabolic activation
CTLL-2 cells [3] = format: cell-based, mouse; settings: after metabolic activation
CTLL-2 cells [4] = settings: after metabolic activation
CTLL-2-bcl2 cells [5] = experiment: Measurement of apoptosis (Annexin V-FITC, YOPRO-1) in CTLL-2-bcl2 cells; format: cell-based, mouse; settings: for induction of apoptosis (result in words): in parallel to micronucleus test
CTLL-2-bcl2 cells [6] = experiment: Micronucleus test without metabolic activation in CTLL-2-bcl2 cells; settings: harvested at 15th hour
CTLL-2 cells [7] = experiment: Measurement of apoptosis (Annexin V-FITC, YOPRO-1) in CTLL-2 cells; format: cell-based, mouse
CTLL-2 cells [8] = experiment: Micronucleus test without metabolic activation in CTLL-2 cells; settings: for formation of micronuclei / micronucleated cell frequency (result in words): harvested at 15th hour, without metabolic activation
human lymphocytes [9] = settings: human lymphocytes treated 44 hours; from 250 μM of dexamethasone; control 2%
human lymphocytes [10] = settings: 44 hours
CTLL-2 cells [11] = settings: mouse, 15 h
CTLL-2 cells [12] = experiment: Metaphase analysis test in CTLL-2 cells; format: cell-based, mouse; settings: for aberrant cells: CTLL-2
CTLL-2-bcl2 cells [13] = settings: mouse, 15 h
[14] = CTLL-2 cells, in parallel to micronucleus test

Cc1c2ccccc2c(C)c2c1ccc1ccccc12 [7,12-dimethylbenz[a]anthracene]
formation of micronuclei (result in words) (CTLL-2-bcl2 cells [1]): induce the formation of micronuclei
apoptosis (result in words) (CTLL-2-bcl2 cells [2]): apoptosis only on the CTLL-2 cells
apoptosis (result in words) (CTLL-2 cells [3]): apoptosis only on the CTLL-2 cells
formation of micronuclei (result in words) (CTLL-2 cells [4]): induce the formation of micronuclei

Cc1c2oc3c(C)ccc(C(=O)N[C@@H]4C(=O)N[C@H](C(C)C)C(=O)N5CCC[C@H]5C(=O)N(C)CC(=O)N(C)[C@@H](C(C)C)C(=O)O[C@@H]4C)c3nc-2c(C(=O)N[C@@H]2C(=O)N[C@H](C(C)C)C(=O)N3CCC[C@H]3C(=O)N(C)CC(=O)N(C)[C@@H](C(C)C)C(=O)O[C@@H]2C)c(N)c1=O [Actinomycin D] (I: T[dV]P[Sar][NMeV] / II: T[dV]P[Sar][NMeV]; ester I:1-I:C, II:1-II:C; linker I:N-II:N via Actinocin(9to1))
induction of apoptosis (result in words) (CTLL-2-bcl2 cells [5]): neither apoptosis nor genotoxicity is observed
formation of micronuclei / micronucleated cell frequency (result in words) (CTLL-2-bcl2 cells [6]): neither apoptosis nor genotoxicity is observed
induction of apoptosis (result in words) (CTLL-2 cells [7]; [14]): induction of apoptosis
formation of micronuclei / micronucleated cell frequency (result in words) (CTLL-2 cells [8]; CTLL-2 cells): positive response in terms of clastogenesis

COS(C)(=O)=O [MMS, Methyl methanesulfonate]
induction of apoptosis (result in words) (CTLL-2-bcl2 cells [5]): apoptotic phenomenon is not triggered
induction of apoptosis (result in words) (CTLL-2 cells [7]; [14]): apoptotic phenomenon is not triggered

CN(N=O)C(N)=O [MNU, N-methyl-N-nitrosourea]
induction of apoptosis (result in words) (CTLL-2-bcl2 cells [5]): without inducing apoptosis
formation of micronuclei / micronucleated cell frequency (result in words) (CTLL-2-bcl2 cells [6]): positive response
induction of apoptosis (result in words) (CTLL-2 cells [7]; [14]): without inducing apoptosis
formation of micronuclei / micronucleated cell frequency (result in words) (CTLL-2 cells [8]; CTLL-2 cells): positive response

COC(=O)Nc1nc2ccc(C(=O)c3cccs3)cc2[nH]1 [Nocodazole, nocodazole]
induction of apoptosis (result in words) (CTLL-2 cells [7]; [14]): induce apoptosis

C[C@H]1CCC/C=C/[C@@H]2C[C@H](O)C[C@H]2[C@H](O)/C=C/C(=O)O1 [brefeldin A]
induction of apoptosis (result in words) (CTLL-2 cells [7]; [14]): induce apoptosis

CC[C@@]1(O)C(=O)OCc2c1cc1n(c2=O)Cc2cc3ccccc3nc2-1 [camptothecin]
induction of apoptosis (result in words) (CTLL-2 cells [7]; [14]): induce apoptosis

COc1cc(/C=C/C(=O)CC(=O)/C=C/c2ccc(O)c(OC)c2)ccc1O [curcumin]
induction of apoptosis (result in words) (CTLL-2 cells [7]; [14]): induce apoptosis

O=P1(N(CCCl)CCCl)NCCCO1 (stereo not drawn) [cyclophosphamide]
formation of micronuclei (result in words) (CTLL-2-bcl2 cells [1]): induce the formation of micronuclei
apoptosis (result in words) (CTLL-2-bcl2 cells [2]): apoptosis only on the CTLL-2 cells
apoptosis (result in words) (CTLL-2 cells [3]): apoptosis only on the CTLL-2 cells
formation of micronuclei (result in words) (CTLL-2 cells [4]): induce the formation of micronuclei

C[C@@H]1C[C@H]2[C@@H]3CCC4=CC(=O)C=C[C@]4(C)[C@@]3(F)[C@@H](O)C[C@]2(C)[C@@]1(O)C(=O)CO [dexamethasone]
aberrant cells (human lymphocytes [9]): 11%
concentration from which apoptosis increased (human lymphocytes [10]): 250 µM
apoptosis (human lymphocytes [10]; from 250 μM of dexamethasone, control approximately 16%): 40%
micronucleated cells (CTLL-2 cells [11]; 50 nM): 60 ‰
aberrant cells (CTLL-2 cells [12]; from 37.5 nM of dexamethasone, control 2%): 8%
chromosomal aberrations (result in words) (CTLL-2 cells [12]; CTLL-2 cells): chromosome and chromatid breaking but no exchange
lowest concentration with number of aberrant cells statistically different (p=0.05) from control (CTLL-2 cells [12]; CTLL-2 cells): 37.5 nM
concentration from which apoptosis increased (CTLL-2 cells [7]; CTLL-2, in parallel to metaphase analysis): 37.5 nM
apoptosis (CTLL-2 cells [7]; CTLL-2, in parallel to metaphase analysis, 150 nM dexamethasone): 30%
apoptosis (CTLL-2 cells [7]; CTLL-2, in parallel to metaphase analysis, from 37.5 nM of dexamethasone, control approximately 7%): 18%
percentage of apoptotic cells (CTLL-2 cells [7]; CTLL-2, Annexin-V-FITC and YOPRO-1, maximum from 50 nM of dexamethasone, negative control 6%): 30.5%

CN1C(=O)CN=C(c2ccccc2)c2cc(Cl)ccc21 [diazepam]
induction of apoptosis (result in words) (CTLL-2-bcl2 cells [5]): without inducing apoptosis
formation of micronuclei / micronucleated cell frequency (result in words) (CTLL-2-bcl2 cells [6]): positive response
induction of apoptosis (result in words) (CTLL-2 cells [7]): without inducing apoptosis
formation of micronuclei / micronucleated cell frequency (result in words) (CTLL-2 cells [8]; CTLL-2 cells): positive response

CCOS(C)(=O)=O [ethyl methanesulfonate]
induction of apoptosis (result in words) (CTLL-2-bcl2 cells [5]): without inducing apoptosis
induction of apoptosis (result in words) (CTLL-2 cells [7]; [14]): without inducing apoptosis

O=c1c(-c2ccc(O)cc2)coc2cc(O)cc(O)c12 [genistein]
induction of apoptosis (result in words) (CTLL-2 cells [7]; [14]): induce apoptosis

CN1C(=O)[C@]23CC4=CC=C[C@H](O)[C@H]4N2C(=O)[C@@]1(CO)SS3 [gliotoxin]
induction of apoptosis (result in words) (CTLL-2-bcl2 cells [5]): apoptosis was maintained at a lower rate
aberrant cells (CTLL-2 cells [12]; from 50 μM of gliotoxin, control 1%): 10%
chromosomal aberrations (result in words) (CTLL-2 cells [12]; CTLL-2 cells): positive response
lowest concentration with aberrations / positive response in terms of clastogenesis (CTLL-2 cells [12]; CTLL-2 cells): 50 µM
formation of micronuclei / micronucleated cell frequency (result in words) (CTLL-2-bcl2 cells [6]): as was the number of micronucleated cells
level of apoptosis (CTLL-2 cells [7]): 45%
apoptosis (CTLL-2 cells [7]; CTLL-2, in parallel to metaphase analysis, […], controls 5%): 17%
lowest concentration with apoptosis different from control (p=0.01) (CTLL-2 cells [7]; CTLL-2 cells): 100 nM
lowest concentration with increase in micronuclei versus control (CTLL-2 cells [8]; CTLL-2 cells): 100 nM
number of aberrant (micronucleated) cells (CTLL-2 cells [8]; nontransfected CTLL-2, gliotoxin at the highest dose (200 nM), increased from 5‰): 20 ‰

CSCCC=O [methional]
induction of apoptosis (result in words) (CTLL-2-bcl2 cells [5]): neither apoptosis nor micronuclei appeared
lowest concentration with statistically significant (p=0.01) micronucleated cells (CTLL-2 cells [11]): 60.8 µM
number of micronucleated cells (CTLL-2 cells [11]; 150 μM): 98 ‰
chromosomal aberrations (result in words) (CTLL-2 cells [12]; CTLL-2 cells): structural aberrations, such as breaks or gaps
lowest concentration with aberrations / positive response in terms of clastogenesis (CTLL-2 cells [12]; CTLL-2 cells): 18.75 µM
cells bearing chromosomal aberrations (CTLL-2 cells [12]; nontransfected CTLL-2, methional 18.75 μM, control 3%): 13%
level of apoptotic cells (CTLL-2 cells [7]; CTLL-2, methional at the highest dose (150 μM), control 6.5%): 24%
lowest concentration with statistically significant (p=0.01) induction of apoptosis (CTLL-2 cells [7]; CTLL-2 cells, first dose): 60.8 µM

CCN(CC)CCCC(C)Nc1c2ccc(Cl)cc2nc2ccc(OC)cc12 (stereo not drawn) [quinacrin]
induction of apoptosis (result in words) (CTLL-2 cells [7]; [14]): induce apoptosis

CN[C@@H]1C[C@H]2O[C@@](C)([C@@H]1OC)n1c3ccccc3c3c4c(c5c6ccccc6n2c5c31)C(=O)NC4 [staurosporine]
induction of apoptosis (result in words) (CTLL-2-bcl2 cells [5]): neither apoptosis nor genotoxicity is observed
formation of micronuclei / micronucleated cell frequency (result in words) (CTLL-2-bcl2 cells [6]): neither apoptosis nor genotoxicity is observed
induction of apoptosis (result in words) (CTLL-2 cells [7]; [14]): induction of apoptosis
formation of micronuclei / micronucleated cell frequency (result in words) (CTLL-2 cells [8]; CTLL-2 cells): positive response in terms of clastogenesis

CC(=O)O[C@H]1C(=O)[C@@]2(C)[C@H]([C@H](OC(=O)c3ccccc3)[C@]3(O)C[C@H](OC(=O)[C@H](O)[C@@H](NC(=O)c4ccccc4)c4ccccc4)C(C)=C1C3(C)C)[C@]1(OC(C)=O)CO[C@@H]1C[C@@H]2O [taxol]
apoptosis at the dose that increases micronuclei (CTLL-2-bcl2 cells [5]; taxol 50 nM): do not cause apoptosis
lowest concentration with increase in micronuclei versus control (CTLL-2 cells [11]): 25 nM
concentration at which the difference in number of micronuclei between CTLL-2 and CTLL-2-bcl2 lines appears (CTLL-2-bcl2 cells [13]): 25 nM
lowest concentration with increase in number of micronuclei (CTLL-2-bcl2 cells [13]): 50 nM
induction of apoptosis (result in words) (CTLL-2 cells [7]; [14]): induce apoptosis
apoptosis at the dose that increases micronuclei (CTLL-2 cells [7]; CTLL-2 cells, taxol 25 nM): do not cause apoptosis

mitomycin C
formation of micronuclei / micronucleated cell frequency (result in words) (CTLL-2-bcl2 cells [6]): micronucleated cell frequencies increase significantly with the dose
formation of micronuclei / micronucleated cell frequency (result in words) (CTLL-2 cells [8]; CTLL-2 cells): micronucleated cell frequencies increase significantly with the dose

thapsigargine
induction of apoptosis (result in words) (CTLL-2 cells [7]; [14]): induce apoptosis
